This is an account of results in patent US9527832B2, “Substituted condensed pyrimidine compounds” (GRÜNENTHAL GMBH, priority 2013, dated 2016).

For data set [1], the target named is T1, human PDE4B1 (Homo sapiens, UniProt Q07343).
T1 construct: host or cells: Sf9 cells
Put plainly: cAMP HTRF assay to determine the activity of hPDE4B1. It counts as biochemical. Conditions: for inhibition at 1 µM: Percentage inhibition of PDE4B at 1 μM test concentration; for IC50: dose response measurements with eight concentrations, reported as ranges, read-out: IC50. A digest of the protocol: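 Sf9-expressed recombinant human PDE4B1 (4.8 U) in Tris-HCl/MgCl2/DTT/Tween 20 buffer pH 7.8, with cAMP at 40 nM final, 30 min at room temperature. Reaction stopped with IBMX 1 mM; remaining cAMP detected by HTRF (665/620 nm ratio). IC50 from eight-point dose-response, n=2.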
(In general: Time-resolved FRET reads energy transfer from a long-lived donor to a nearby acceptor.)

T1 sequence (Q07343 whole entry): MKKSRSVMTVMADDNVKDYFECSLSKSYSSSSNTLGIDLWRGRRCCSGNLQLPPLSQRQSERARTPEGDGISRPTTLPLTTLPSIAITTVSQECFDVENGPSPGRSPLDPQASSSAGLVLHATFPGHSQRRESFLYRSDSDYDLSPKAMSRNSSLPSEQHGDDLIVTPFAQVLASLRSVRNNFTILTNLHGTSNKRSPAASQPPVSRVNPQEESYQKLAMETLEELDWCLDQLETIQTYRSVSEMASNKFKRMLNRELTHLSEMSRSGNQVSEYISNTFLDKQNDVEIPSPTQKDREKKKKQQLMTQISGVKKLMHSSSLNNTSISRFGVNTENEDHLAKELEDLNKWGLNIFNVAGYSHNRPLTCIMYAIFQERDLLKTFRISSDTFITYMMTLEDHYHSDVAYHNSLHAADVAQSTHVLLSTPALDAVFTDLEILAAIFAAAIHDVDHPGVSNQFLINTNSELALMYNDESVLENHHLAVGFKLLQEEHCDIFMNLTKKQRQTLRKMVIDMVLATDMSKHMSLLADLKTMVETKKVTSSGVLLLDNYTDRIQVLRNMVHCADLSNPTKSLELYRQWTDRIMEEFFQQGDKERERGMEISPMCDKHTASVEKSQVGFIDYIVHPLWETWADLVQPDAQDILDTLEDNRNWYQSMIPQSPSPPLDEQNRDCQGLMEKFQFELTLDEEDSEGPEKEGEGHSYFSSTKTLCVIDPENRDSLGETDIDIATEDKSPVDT

Usually melting point stands for the temperature of the solid-liquid transition. Usually inhibition stands for the drop in the measured response relative to a control, in per cent. In general, IC50 refers to the concentration that inhibits the measured activity by half. With `O=C(COc1ccc2c(c1)N(c1nc(-c3ccc(Cl)s3)nc3c1CCC3)CC2)N1CCCC1` [Compound No. 2-142, 2-((1-(2-(5-Chlorothiophen-2-yl)-6,7-dihydro-5H-cyclopenta[d]pyrimidin-4-yl)indolin-6-yl)oxy)-1-(pyrrolidin-1-yl)ethanone], the melting point was 209 to 212 °C. Moreover, in data set [1], the inhibition at 1 µM is 61% and the half-maximal inhibitory concentration (IC50) lay within 0.1 to 1 µM.
On to `COc1ccc(-c2nc3c(c(N4CCc5cc(CC(=O)O)ccc54)n2)CS(=O)(=O)C3)cc1Cl` [Compound No. 1-11, 2-(1-(2-(3-Chloro-4-methoxy-phenyl)-6,6-dioxo-5,7-dihydro-thieno[3,4-d]pyrimidin-4-yl)-2,3-dihydro-1H-indol-5-yl)acetic acid], for which the melting point fell in the range of 245 to 247 °C. Moreover, in data set [1], the inhibition at 1 µM was 100% and the half-maximal inhibitory concentration (IC50) is less than 0.1 µM.
For `COc1ccc(-c2nc3c(c(N4CCc5c(OCC(=O)N(C)C)cccc54)n2)CS(=O)(=O)C3)cc1F` [Compound No. 2-10, 2-((1-(2-(3-Fluoro-4-methoxy-phenyl)-6,6-dioxo-5,7-dihydro-thieno[3,4-d]pyrimidin-4-yl)-2,3-dihydro-1H-indol-4-yl)oxy)-N,N-dimethyl-acetamide], the melting point lay within 231 to 233 °C.
In the case of `COc1ccc(-c2nc3c(c(N4CCc5cc(CC(=O)O)ccc54)n2)CS(=O)(=O)C3)cc1F` [Compound No. 1-10, 2-(1-(2-(3-Fluoro-4-methoxy-phenyl)-6,6-dioxo-5,7-dihydro-thieno[3,4-d]pyrimidin-4-yl)-2,3-dihydro-1H-indol-5-yl)acetic acid], the melting point was in the range of 192 to 195 °C. In addition, in data set [1], the inhibition at 1 µM is 96% and the IC50 is less than 0.1 µM.
As to `COc1ccc(-c2nc3c(c(N4CCc5c(OCC(=O)N(C)C)cccc54)n2)CS(=O)(=O)C3)cc1` [Compound No. 2-2, 2-((1-(2-(4-Methoxyphenyl)-6,6-dioxo-5,7-dihydro-thieno[3,4-d]pyrimidin-4-yl)-2,3-dihydro-1H-indol-4-yl)oxy)-N,N-dimethyl-acetamide], the melting point fell in the range of 225 to 232 °C.
Still for that read-out and setting: with `CN(C)C(=O)COc1cccc2c1CCN2c1nc(-c2cccc(F)c2)nc2c1CS(=O)(=O)C2` [Compound No. 2-4, 2-((1-(2-(3-Fluorophenyl)-6,6-dioxo-5,7-dihydro-thieno[3,4-d]pyrimidin-4-yl)-2,3-dihydro-1H-indol-4-yl)oxy)-N,N-dimethyl-acetamide] the figure was 237 to 245 °C.
`COc1ccc(-c2nc3c(c(N4CCc5cc(CC(=O)O)ccc54)n2)CS(=O)(=O)C3)cc1` [Compound No. 1-12, 2-(1-(2-(4-Methoxyphenyl)-6,6-dioxo-5,7-dihydro-thieno[3,4-d]pyrimidin-4-yl)-2,3-dihydro-1H-indol-5-yl)acetic acid] registered a melting point of 239 to 243 °C. In data set [1], the inhibition at 1 µM was 108% and the IC50 was less than 0.1 µM.
